Test results as given in patent publication US20220146526A1, “METHOD FOR EVALUATING SAMPLE, ANALYSIS METHOD, METHOD FOR DETECTING DEGRADED SAMPLE, MARKER FOR DETECTING DEGRADED BLOOD PLASMA SAMPLE, AND MARKER FOR DETECTING DEGRADED SERUM SAMPLE” (SHIMADZU CORPORATION, priority 2019, published 2022).

Columns and labels:
Format in all cases: physicochemical, human
[1] = GC/MS of blood plasma sample: time from blood collection to cooling of blood (Table B); parameters: key to Rate of increase or decrease / Rate of increase or decrease (first value, increase): detection intensity relative to 1 at cooling time ≤1 min; details: for Increase or decrease: detection intensity, blood collection to cooling 5 minutes or more vs 1 minute or less; for Rate of increase or decrease (second value, decrease) / Rate of increase or decrease (first value, increase): different from individual to individual, relative to 1 at 1 minute or less, collection to cooling 5 minutes; for Rate of increase or decrease (second value, decrease): individuals with decrease; for Rate of increase or decrease (first value, increase): individuals with increase
Procedure, shortened: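 Blood drawn at room temperature into EDTA tubes, mixed, then cooled at 4° C. within 1 minute or less versus 5 minutes or more before centrifugation (4° C., 3000 rpm, 15 minutes). Plasma was frozen, methoxymated and trimethylsilylated, and analysed by EI GC/MS in MRM mode. Values are detection intensity relative to the ≤1 minute condition.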

[2] = GC/MS of blood plasma sample: time from blood collection to centrifugation (Table A); details: for Increase or decrease: detection intensity, after 4 hours vs 15 minutes; for Rate of increase or decrease (second value, decrease) / Rate of increase or decrease (first value, increase): different from individual to individual, relative to 1 at 15 minutes, collection to centrifugation; for Rate of increase or decrease (second value, decrease): individuals with decrease; for Rate of increase or decrease (first value, increase): individuals with increase
Procedure, shortened: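 Read-out is MRM detection intensity by electron-ionization GC/MS on a BPX5 column after methoxymation and trimethylsilylation, expressed relative to a 15-minute collection-to-centrifugation interval. Plasma was prepared from EDTA blood held at 4° C and spun at 4° C, 3000 rpm for 15 minutes, then frozen.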

[3] = GC/MS of serum sample: time from blood collection to centrifugation (Table G); details: blood collection to centrifugation; for Rate of increase or decrease: detection intensity relative to 1 at 15 minutes, after 4 hours; for Increase or decrease: detection intensity, after 4 hours vs 15 minutes
Procedure, shortened: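 Values express detection intensity as a ratio to the sample centrifuged 15 minutes after blood collection (taken as 1). Serum was derivatized by methoxymation and trimethylsilylation, then analysed by electron-ionization GC/MS using multiple reaction monitoring on a BPX5 column ramped from 60 to 330° C.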

[4] = GC/MS of blood plasma sample: number of times of freezing and thawing (Table C); details: for Rate of increase or decrease: detection intensity relative to 1 at 2 times; for Increase or decrease: detection intensity
Procedure, shortened: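 Values express detection intensity as a ratio to the 2-cycle freeze-thaw sample (=1), compared with 4, 6 and 10 cycles. Healthy-donor EDTA plasma, cooled at ≤1 min or ≥5 min, spun at 4 °C, 3000 rpm, 15 min. Derivatised by methoxymation/trimethylsilylation; GC-MS/MS in MRM mode with electron ionization.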

[5] = GC/MS of serum sample: time from centrifugation to isolation (Table H); parameters: key to Rate of increase or decrease / Rate of increase or decrease (first value, increase): detection intensity relative to 1 at 30 min centrifugation-to-isolation; details: for Rate of increase or decrease: detection intensity relative to 1 at 30 minutes, after 1 hour; for Increase or decrease: detection intensity, after 1 hour vs 30 minutes
Procedure, shortened: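 Values are GC/MS (EI, MRM) detection intensities of methoxymated/trimethylsilylated serum, normalised to 1 for the 30-min sample. Serum was isolated 30 min, 1 h or 6 h after room-temperature centrifugation (3500 rpm, 5 min) of blood.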

[6] = GC/MS of serum sample: number of times of freezing and thawing (Table I); parameters: key to Rate of increase or decrease / Rate of increase or decrease (first value, increase): detection intensity relative to 2 freeze-thaw cycles = 1; details: for Rate of increase or decrease: detection intensity relative to 1 at 2 times
Procedure, shortened: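 Detection intensities are ratios to the value after two freeze–thaw cycles, which is set as 1, compared against 4, 6 and 10 cycles. Analysis used methoxymation and trimethylsilylation derivatization, then GC/MS with EI ionization and multiple reaction monitoring on a BPX5 column. Serum came from blood held at room temperature and spun at 3500 rpm for 5 min.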

[7] = LC/MS of serum sample: number of times of freezing and thawing (Table M); parameters: key to Rate of increase or decrease: detection intensity relative to 1 at 2 freeze-thaw cycles; details: for Rate of increase or decrease: 4 times of freezing and thawing, detection intensity relative to 1 at 2 times; for Number of times when compound is affected / Increase or decrease: serum sample, LC/MS; for Number of times when compound is affected: detection intensity changed by 30% or more vs 2 times of freezing and thawing; for Increase or decrease: detection intensity vs 2 times of freezing and thawing
Procedure, shortened: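 Values are detection intensities relative to serum thawed twice, versus 4, 6 or 10 freeze-thaw cycles. Serum came from blood spun at room temperature, 3500 rpm for 5 minutes. Analysis: electrospray LC/MS in MRM mode, Discovery HS F5-3 column, 40° C, 0.1% formic acid in water and acetonitrile.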

[8] = LC/MS of serum sample: time from centrifugation to isolation (Table K); parameters: key to Rate of increase or decrease: detection intensity relative to the 30-minute value set as 1; details: for Rate of increase or decrease: after 1 hour, relative to 1 at 30 minutes, different from individual to individual; for Increase or decrease / Time when compound is affected: serum sample, LC/MS; for Increase or decrease: detection intensity vs 30 minutes from centrifugation to isolation; for Time when compound is affected: time from centrifugation to isolation, detection intensity changed by 30% or more vs 30 minutes
Description: (§1) After standing, the blood sample was subjected to centrifugation under a condition of room temperature, 3500 rpm, and 5 minutes. […] After centrifugation, the blood-collecting vessel was left to stand at room temperature, and the serum was isolated during this time. Here, in order to investigate how the detection intensity of molecules contained in the sample was affected in cases where the time during which the blood-collecting vessel was left at room temperature was set to 1 hour and 6 hours as compared to that in a case where the time was set to 30 minutes, preparations were performed under the respective conditions of 30 minutes, 1 hour, and 6 hours. The obtained serum sample was frozen and stored. Here, in order to investigate how the detection intensity of molecules contained in the sample was affected in cases where freezing and thawing was performed 4 times, 6 times, and 10 times after freezing as compared to that in a case where freezing and thawing was performed 2 times after freezing, freezing and thawing was performed under the respective conditions of 2, 4, 6, and 10 times.
(§2) Frozen blood plasma samples and serum samples were subjected to GC/MS or LC/MS. In GC/MS, the blood plasma samples and serum samples were subjected to methoxymation and trimethylsilylation and then introduced to GC-MS.
(§3) Analysis column: Discovery HS F5-3 (inner diameter of 2.1 mm, length of 150 mm, film thickness of 3 μm) (Sigma-Aldrich)
(§4) Column temperature: 40° C.
(§5) (A) 0.1% formic acid (dissolved in water)
(§6) (B) 0.1% formic acid (dissolved in acetonitrile)
(§7) Flow velocity: 0.25 mL/min
(§8) Ionization method: electrospray
(§9) Temperature: • Desolvation Line (DL) temperature: 250° C. • Heat block temperature: 400° C. • Interface temperature: 300° C.
(§10) Gas flow rate: • Nebulizer gas flow rate: 3.0 L/min • Drying gas flow rate: 10.0 L/min • Heating gas flow rate: 10.0 L/min
(§11) Mode: multiple reaction monitoring (MRM)
The rate of increase or decrease in Table K is the value of detection intensity relative to 1 that is the detection intensity in a case where the time from centrifugation to isolation is set to 30 minutes.

[9] = LC/MS of serum sample: time from blood collection to centrifugation (Table J); details: for Increase or decrease / Time when compound is affected: serum sample, LC/MS; for Increase or decrease: detection intensity vs 15 minutes from blood collection to centrifugation; for Time when compound is affected: time from blood collection to centrifugation, detection intensity changed by 30% or more vs 15 minutes
Description: as §1, §2, §3, §4, §5, §6, §7, §8, §9, §10, §11
The rate of increase or decrease in Table J is the value of detection intensity relative to 1 that is the detection intensity in a case where the time from blood collection to centrifugation is set to 15 minutes.

[10] = LC/MS of blood plasma sample: time from blood collection to centrifugation (Table D)
Procedure, shortened: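 Detection intensities are expressed relative to samples centrifuged 15 min after collection (=1), measured by electrospray LC/MS in MRM mode (Discovery HS F5-3, 40 °C, formic acid water/acetonitrile gradient at 0.25 mL/min). EDTA blood from a healthy donor was held at 4 °C, centrifuged at 4 °C, 3000 rpm, 15 min, and plasma frozen.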

[11] = LC/MS of blood plasma sample: number of times of freezing and thawing (Table F)
Procedure, shortened: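 Values are detection intensities normalised to 1 for plasma thawed twice, compared against 4, 6 and 10 freeze-thaw cycles. Measured by electrospray LC/MS in MRM mode, formic acid water/acetonitrile mobile phase, column at 40° C. Plasma came from EDTA blood, cooled to 4° C and spun at 3000 rpm for 15 min.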

[12] = blood collection to centrifugation
[13] = after 4 hours from blood collection to centrifugation, detection intensity relative to 1 at 15 minutes

SMILES | Increase or decrease [1] | Rate of increase or decrease (second value, decrease) [1] | Rate of increase or decrease (first value, increase) [1] | Increase or decrease [2, 12] | Rate of increase or decrease (second value, decrease) ([2]; after 4 hours) | Rate of increase or decrease (first value, increase) ([2]; after 4 hours) | Rate of increase or decrease [3] | Increase or decrease [3] | Rate of increase or decrease [5] | Increase or decrease [5] | Rate of increase or decrease [7] | Number of times when compound is affected [7] [times] | Increase or decrease [7] | Rate of increase or decrease ([8]; second value (decrease)) | Increase or decrease [8] | Time when compound is affected [8] | Rate of increase or decrease [9, 13] | Increase or decrease [9] | Time when compound is affected [9] | further results
O=C(O)/C=C\C(=O)O [Maleic acid] | Different from individual | 0.54 | 1.38 | Different from individual | 0.47 | 1.75 | 1.65 | Increase | 1.43 | Increase | – | – | – | – | – | – | – | – | – | Rate of increase or decrease ([4]; freezing and thawing 10 times): 2.12; Increase or decrease ([4]; freezing and thawing 10 times vs 2 times): Increase; Rate of increase or decrease ([6]; serum, GC/MS, freezing and thawing 4 times): 2.62; Increase or decrease ([6]; detection intensity, serum, GC/MS, freezing and thawing 4 times vs 2 times): Increase
O=C(O)CCCCCCCC(=O)O [Azelaic acid] | Decrease | – | – | Increase | – | – | 0.51 | Decrease | 1.71 | Increase | – | – | – | – | – | – | – | – | – | Rate of increase or decrease ([1]; detection intensity relative to 1 at 1 minute or less, blood collection to cooling 5 minutes): 0.67; Rate of increase or decrease ([2]; detection intensity relative to 1 at 15 minutes, blood collection to centrifugation, after 4 hours): 2.03; Increase or decrease ([4]; freezing and thawing 4 times vs 2 times): Different from individual; Rate of increase or decrease (second value, decrease) ([4]; different from individual to individual, individuals with decrease, relative to 1 at 2 times, freezing and thawing 4 times): 0.66; Rate of increase or decrease (first value, increase) ([4]; different from individual to individual, individuals with increase, relative to 1 at 2 times, freezing and thawing 4 times): 1.45; Rate of increase or decrease ([6]; 10 times of freezing and thawing): 9.39; Number of times when compound is affected ([6]; serum sample, GC/MS, detection intensity changed by 30% or more vs 2 times of freezing and thawing): 10 times; Increase or decrease ([6]; serum sample, GC/MS, detection intensity vs 2 times of freezing and thawing): Increase
NCCC(=O)N[C@@H](Cc1cnc[nH]1)C(=O)O [Carnosine, carnosine] | – | – | – | – | – | – | – | – | – | – | 0.59 | 4 | Decrease | 0.56 | Different from individual | After 1 hour hours | 2.83 | Increase | After 4 hours | Rate of increase or decrease ([8]; first value (increase)): 1.41
O=c1ccn([C@@H]2O[C@H](CO)[C@@H](O)[C@H]2O)c(=O)[nH]1 [Uridine] | Different from individual | 0.64 | 2.62 | Different from individual | 0.48 | 1.48 | – | – | – | – | 0.68 | 4 | Decrease | – | – | – | 1.42 | Increase | After 4 hours | Increase or decrease ([10]; detection intensity, blood collection to centrifugation, after 12 hours vs 15 minutes): Different from individual; Rate of increase or decrease (second value, decrease) ([10]; different from individual to individual, individuals with decrease, relative to 1 at 15 minutes, collection to centrifugation, after 12 hours): 0.60; Rate of increase or decrease (first value, increase) ([10]; different from individual to individual, individuals with increase, relative to 1 at 15 minutes, collection to centrifugation, after 12 hours): 1.67; Rate of increase or decrease ([4]; freezing and thawing 6 times): 0.69; Increase or decrease ([4]; freezing and thawing 6 times vs 2 times): Decrease; Rate of increase or decrease ([11]; detection intensity relative to 1 at 2 times, freezing and thawing 6 times): 1.31; Increase or decrease ([11]; detection intensity, freezing and thawing 6 times vs 2 times): Increase
Nc1nc2c(ncn2[C@@H]2O[C@@H]3COP(=O)(O)O[C@H]3[C@H]2O)c(=O)[nH]1 [Guanosine 3′,5′-cyclic monophosphate, guanosine 3′,5′-cyclic monophosphate] | – | – | – | – | – | – | – | – | – | – | 1.47 | 4 | Increase | 0.46 | Different from individual | After 1 hour hours | – | Different from individual | After 4 hours | Rate of increase or decrease ([9]; after 4 hours, relative to 1 at 15 minutes, different from individual to individual, first value (increase)): 3.62; Rate of increase or decrease ([9]; after 4 hours, relative to 1 at 15 minutes, different from individual to individual, second value (decrease)): 0.58
